Usually EC50 stands for the concentration at which the effect is half-maximal.

The text below walks through data of PubChem BioAssay AID2252 (Southern Research Specialized Biocontainment Screening …, 2010).

Several values for one entry are separate records, joined by “and”; a condition that tells them apart may be missing. Identical values can stand only once. Where only a bound is given, the exact number is not on record here.

The experiment concerns THP-1 viability, CellTiter-Glo luminescence, 72 h. The experiment can be described thus: PubChem AID 2252.
For the compound `CCCCCCCCCCOC(=O)Cn1c(COc2ccc(C)cc2)[n+](C)c2ccccc21`, the concentration for a half-maximal effect (EC50) is 2.36 µM.

For the compound `CNCCCCOc1ccc(C(C)(C)C)cc1Cl`, the EC50 is 21.8 µM.

Regarding `CCCC(=O)c1c(NC)cc(C)oc1=O`, the EC50 is 15.9 µM.

Take `COc1ccc(C(C[N+](=O)[O-])C2(c3ccc(OC)c(OC)c3)C(=O)c3ccccc3C2=O)cc1` (centres undefined): the EC50 was 9.85 µM.

`Cc1c(CCOC(=O)C2C3CC4CC(C3)CC2C4)sc[n+]1CC(=O)c1ccc(Br)cc1` (centres undefined): the EC50 is 6.34 µM.

Turning to `c1ccc2c(c1)nc(N1CCOCC1)c1c3ccccc3[nH]c21`, the EC50 was less than 0.1 µM.

With `Clc1ccc(C(c2ccc(Cl)cc2)n2cc[n+](CC(OCc3ccc(Cl)cc3Cl)c3ccc(Cl)cc3Cl)c2)cc1` (centres undefined), the EC50 is 1.45 µM.

Regarding `OC(c1cc(C(F)(F)F)nc2c(C(F)(F)F)cccc12)C1CCCCN1` (centres undefined), the EC50 was 7.61 µM.

Consider `CN(CC(=O)Nc1ccc(F)c(F)c1F)c1cnccn1`, for which the EC50 was 19.6 µM.

As for `C#CCOCCOCCOCCNc1nc(N2CCN(C(=O)CCCCCCCCCCNC(=O)[C@H](CCCCN)n3cc(C[C@@H](C)CC)nn3)CC2)nc(N2CCN(C(=O)CCCCCCCCCCNC(=O)[C@H](CCCN=C(N)N)n3cc(C[C@@H](C)CC)nn3)CC2)n1`, the EC50 was 5.23 µM.

Take `CCCCc1ccc2[nH]cc(CCN)c2c1`: the EC50 was 7.81 µM.

For `CC[C@@H](C)[C@H](CN[C@H](CNC)C(C)C)NC[C@@H](C)c1ccc(CC(C)C)cc1`, the EC50 is 5.96 µM.

As for `c1ccc(Nc2nc(NCc3ccco3)c3ccccc3n2)cc1`, the EC50 was 4.95 µM.

Regarding `C[C@@H](NC(=O)/C(C#N)=C/c1ccc(O)c(O)c1)c1ccccc1`, the EC50 is 15.2 µM.

Take `O=c1[nH]c(-c2ccccn2)nc(C(F)(F)F)c1Br`: the EC50 is 11.5 µM.

With `O=C(Nc1ccc(Cc2ccncc2)cc1)c1ccc([N+](=O)[O-])o1`, the EC50 was 4.02 µM.

With `CC(=O)NCc1ccc(C(=O)CCl)cc1`, the EC50 was 33.3 µM.

On to `Fc1ccc(Nc2ccnc(Nc3ccc(F)cc3)n2)cc1`, for which the concentration for a half-maximal effect (EC50) is 11.7 µM.

For `CC(C)C1N=C(c2ccc3c(c2)OCO3)CC(c2ccccc2O)N1` (centres undefined), the concentration for a half-maximal effect (EC50) was 43.3 µM.

As to `N=c1n(Cc2ccc(Cl)cc2)c2ccccc2n1CC(O)COc1ccccc1` (centres undefined), the EC50 was 5.39 µM.

As to `COc1cccc(/C=N/NC(=O)CNC(=O)COc2cccc(C)c2)c1O`, the EC50 was 9.52 µM.

`CCCCCCCCCCCCCCCC[n+]1cccc(C(=O)N(CC)CC)c1`: the EC50 was 0.44 µM.

For `CN1CCN(CC(=O)N2CCn3c4c(c5cc(C6CCCCC6)ccc53)CCCC42)CC1` (centres undefined), the half-maximal effective concentration (EC50) is 6.66 µM.

As for `C/C(Cn1nnc([N+](=O)[O-])n1)=N\NC(=O)c1ccccc1`, the half-maximal effective concentration (EC50) is 40 µM.

With `COc1ccc(CNCCC(c2ccccc2)c2ccc3c(c2)OCO3)cc1` (centres undefined), the EC50 is 13.4 µM.

Regarding `CCCCCCCCCCOC(=O)Cn1c(COc2cccc(OC)c2)[n+](C)c2ccccc21`, the EC50 is 2.38 µM.

For `CSc1ccc2c(c1)C(N1CCN(C)CC1)Cc1ccc(F)cc1S2` (centres undefined), the EC50 is 5.63 µM.

Turning to `CCCCCNC(=O)c1cn(CC)c2cc(N3CCN(C)CC3)c(F)cc2c1=O`, the EC50 is 19.8 µM.

As to `CN(C)CCCN(C(=O)COc1ccccc1)c1nc2ccc(Cl)cc2s1`, the EC50 was 46.8 µM.

In the case of `O=CN/N=C/c1c(O)ccc2ccccc12`, the EC50 is 5.1 µM.

As to `Cc1cc(Cl)c(OCCCNCc2ccccc2)c(Br)c1`, the EC50 is 21.4 µM.

As to `CCN(CC)CCSc1nnc2c3ccccc3n(Cc3ccccc3)c2n1`, the EC50 is 26.3 µM.

Consider `Nc1nc2ccccc2n1CCOc1ccccc1Cl`, for which the EC50 is 16.6 µM.

Turning to `CCCCCCOC(=O)C[N+](C)(C)CCOC1CC2CCC1(C)C2(C)C` (centres undefined), the EC50 was 2.08 µM.

As to `CN1CCN(C(c2ccc(Br)cc2)c2cc(Cl)c3cccnc3c2O)CC1` (centres undefined), the EC50 was 2 µM.

Turning to `O=Nc1ccc(O)c2ncccc12`, the EC50 is 2.07 µM.

Regarding `CC(C)(c1ccccc1)c1ccc(OCCCNCCO)cc1`, the EC50 is 16.6 µM.

Consider `CCOc1cc(CNCCCN2CCOCC2)cc(Br)c1OCC(=O)Nc1cccc(C(F)(F)F)c1`, for which the EC50 was 8.24 µM.

Take `CCCCOc1ccc(C(=O)NNC(=S)NC(=O)CC)cc1`: the EC50 was 3.29 µM.

In the case of `Cc1ccc2oc(=O)c(/C=C(\O)c3ccccc3)nc2c1`, the EC50 is less than 0.1 µM.

Consider `N=c1c2c(n(Cc3ccc(Cl)c(Cl)c3)c3c1CCC3)CCCC2`, for which the EC50 is 4.66 µM.

For the compound `Cc1cnc(C(=O)Nc2nnc(C)s2)cn1`, the EC50 was less than 0.1 µM.

As to `COc1cc2c3cc1Oc1cc(ccc1O)C[C@@H]1c4c(cc(OC)c(O)c4Oc4ccc(cc4)C[C@H]3N(C)CC2)CCN1C`, the EC50 was 8.8 µM.

Take `O=C(CCN1CCN(C(=O)c2ccccc2)CC1)c1ccc(Br)cc1`: the EC50 was 40.5 µM.

On to `CN(C)c1ccc(O)c2c1CC1CC3[C@@H](N(C)C)C(=O)C(C(N)=O)=C(O)[C@]3(O)C(=O)C1=C2O` (some centres undefined), for which the EC50 was 30.3 µM.

For the compound `CC(NCc1ccc(-c2ccccc2)cc1)C(O)c1ccccc1` (centres undefined), the EC50 was 5.49 µM.

Take `CCCCn1c(NS(=O)(=O)c2ccccc2)c(S(=O)(=O)c2ccc(C)cc2)c2nc3ccccc3nc21`: the EC50 was 12 µM.

Regarding `Cc1ccc(Cn2c(=N)n(CC(O)COc3ccccc3)c3ccccc32)cc1` (centres undefined), the EC50 is 6.08 µM.

As for `CCc1c(C)n([O-])c2c([n+]1=O)CCCCC2`, the half-maximal effective concentration (EC50) is less than 0.1 µM.

Consider `CCN1CCN(Cc2ccc(NC(=O)c3cc(NC(=O)c4cc(-c5ccc(OC)cc5)n[nH]4)cc(OC)c3)cc2C(F)(F)F)CC1`, for which the EC50 was 3.92 µM.

As to `COc1ccc2[nH]cc(C(=O)CCl)c2c1`, the EC50 is 7.78 µM.

Regarding `COc1ccc(Cc2nnc(N/N=C/c3ccc(O)cc3)[nH]c2=O)cc1OC`, the EC50 was 0.57 µM.

As to `Cc1ccc(Cn2c(=N)c(C(=O)NCc3ccco3)cc3c(=O)n4ccccc4nc32)cc1`, the EC50 is 42.6 µM.

Take `C/C(=N\N=C(N)N)c1ccc(Cl)c(Cl)c1`: the EC50 is 13.3 µM.

As for `N/C(=N\N=C/c1ccc(F)cc1)N/N=C\c1ccc(F)cc1`, the EC50 was 19 µM.

In the case of `CC1CC(=O)c2c(cc3c(-c4c(O)cc(O)c5c(O)c6c(cc45)OC(C)CC6=O)c(O)cc(O)c3c2O)O1` (centres undefined), the EC50 was less than 0.1 µM.

For the compound `COc1ccc(N2C3=C(CC4=C2CC(C)(C)CC4=O)C(=O)CC(C)(C)C3)cc1`, the EC50 is 7.53 µM.

With `Cc1ccc(-c2ccccc2NC(=O)CS(=O)CC(=O)Nc2ccc(C)c(Cl)c2)o1` (centres undefined), the EC50 is 32.2 µM.

For the compound `NC(N)=Nc1nc(-c2ccccc2)c2cc(Cl)ccc2n1`, the EC50 is 3.77 µM.

For the compound `CCOC(=O)N1CCN(Cc2cc(Cl)c3cccnc3c2O)CC1`, the EC50 is 3.12 µM.

In the case of `CN1CCN(C2=Cc3ccccc3Sc3cc(F)c(F)cc32)CC1`, the EC50 was 14.8 µM.

As to `CCOc1cccc(CNCCc2c(C)[nH]c3ccc(OC(F)(F)F)cc23)c1O`, the EC50 is 3.51 µM.

Consider `Cc1cccc(Nc2cc(C)c3c(O)cccc3n2)c1C`, for which the EC50 was 5.35 µM.

As for `Clc1c(OCCCn2ccnc2)ccc2ccccc12`, the EC50 is 41.1 µM.

As for `NC(=NCCCCCCN=C(N)/N=C(\N)Nc1ccc(Cl)cc1)/N=C(\N)Nc1ccc(Cl)cc1`, the EC50 was 3.5 µM and 1.62 µM and 3.91 µM.

Take `COc1ccc(CNc2ncnc3c2[nH]c2ccccc23)cc1`: the EC50 was 39.3 µM.

As to `CCn1cc(C(=O)NCCc2ccccc2)c(=O)c2cc(F)c(N3CCN(C)CC3)cc21`, the concentration for a half-maximal effect (EC50) is 35.4 µM.

As for `CCN1CCN(C2=C(NS(=O)(=O)c3ccc(Br)cc3)C(=O)c3ccccc3C2=O)CC1`, the EC50 was 18.2 µM.

On to `S=C(Nc1cc(Cl)cc(Cl)c1)NC1CCN(Cc2ccccc2)CC1`, for which the EC50 is 14.6 µM.

On to `CC1CCC(C(C)C)C(OC(=O)Cn2c(COc3ccccc3)[n+](C)c3ccccc32)C1` (centres undefined), for which the EC50 was 2.37 µM.

Regarding `O=Nc1c(O)c2ccccc2c2ccccc12`, the EC50 was 3.08 µM.

`Cc1ccc(-c2csc(N=C(N)N)n2)c(C)c1`: the EC50 is 26.9 µM.

On to `Cn1c(SCC(=O)N/N=C/c2ccc([N+](=O)[O-])s2)nnc1-c1ccc(Cl)cc1`, for which the EC50 was 7.71 µM.

Take `CCc1ccc2c(c1)C1(NN=C(c3ccc(C)cc3)S1)C(=O)N2` (centres undefined): the EC50 is 9.42 µM.

For `N#C/C(=C\c1ccc(O)c(O)c1)C(=O)c1ccc(O)c(O)c1`, the EC50 was 39.1 µM.

As to `NC1=NC[C@H](CC2CCCCC2)N1CCc1cc(C(F)(F)F)cc(C(F)(F)F)c1`, the EC50 is 6.33 µM.

In the case of `O=C(/C=C/c1ccccc1)NNC(=O)c1ccco1`, the EC50 is less than 0.1 µM.

Turning to `CN(C)CCCN(C(=O)c1ccc2c(c1)CCCC2)c1nc2ccc(Cl)cc2s1`, the EC50 was 9.82 µM.

With `Nc1nc(=S)c2[nH]cnc2[nH]1`, the EC50 was 0.32 µM.

As to `Cn1c(-c2ccc(Cl)cc2)cnc1N`, the EC50 is 33.8 µM.

With `[O-][n+]1cccc2c(Br)cc(Br)c(O)c21`, the EC50 was 24.4 µM.

In the case of `CCn1nnc(NC(=O)c2ccc([N+](=O)[O-])o2)n1`, the EC50 is 13.6 µM.

Take `C1=C(CCNc2ncnc3c2[nH]c2ccccc23)CCCC1`: the EC50 was 5.45 µM.

For `Cc1ccc(C)c(NC(=O)c2ccccc2O)c1`, the EC50 was 35.1 µM.

Regarding `CCOc1ccc(-c2c[n+]3c(n2-c2ccccc2)CCCCC3)cc1`, the EC50 was 25.6 µM.

For `CC[n+]1c(/C=C/C=C/c2ccc(N(C)C)cc2)sc2ccccc21`, the EC50 was 1.43 µM.

On to `COc1ccc(/C=N/NC(=O)c2cc3c(OC)ccc(OC)c3[nH]2)cc1O`, for which the EC50 is 2.53 µM.

Take `O=C(NCCCN1CCOCC1)c1sc2cc(Cl)ccc2c1Cl`: the EC50 was 35.8 µM.

For `CCCCCOc1ccc(CSC2=NCCN2)cc1[N+](=O)[O-]`, the EC50 was 20 µM.

`Clc1ccc(C[n+]2cc(-c3ccc(Cl)cc3)n3c2CCC3)cc1`: the EC50 is 22.7 µM.

In the case of `C=CCNc1ncnc2c1[nH]c1ccc(Cl)cc12`, the EC50 was 7.13 µM.

For `CCN(CC)CCOC(=O)c1ccc(N/C=C(/C#N)c2nc(-c3ccc(OC)c(OC)c3)cs2)cc1`, the EC50 is 13.5 µM.

As for `Cc1ccc(S(=O)(=O)NC(C)(C)CSc2nnc(N)s2)cc1`, the EC50 was less than 0.1 µM.

In the case of `Nc1ncn(C2O[C@H](CO)[C@@H](O)[C@H]2O)c(=O)n1` (some centres undefined), the EC50 was 14 µM.

Take `CNC(CC(=O)c1ccc([N+](=O)[O-])cc1)C(Cl)(Cl)Cl` (centres undefined): the EC50 is 9.95 µM.

Take `COc1cccc(CNCCc2c[nH]c3ccccc23)c1OCc1ccccc1`: the EC50 was 6.18 µM.

With `O=C(Nc1ccc(Nc2ccncc2)cc1)c1ccc([N+](=O)[O-])cc1`, the EC50 was 11.9 µM.

Consider `COc1ccc(NC2=NC3(CCCCC3)N=C(N)N2)cc1`, for which the EC50 was 27 µM.

Regarding `Cc1ccccc1C(=O)N/N=C/c1ccc([N+](=O)[O-])s1`, the concentration for a half-maximal effect (EC50) was 16.8 µM.
